Legend:
[1] = target: T1, G6sec1 (Homo sapiens, UniProt Q9BYG0); test: β1,3-N-acetylglucosaminyltransferase activity of purified FLAG peptide-fused G6 polypeptide, 2-aminobenzamide-labeled oligosaccharide substrates; format: biochemical; settings: for Relative activity (%) Test 1 G6sec1: 2-aminobenzamide-labeled oligosaccharides, LNnT defined as 100%
T1 construct: made in house; host or cells: Sf21 insect cells infected with pVL1393-F2G6sec1-derived recombinant baculovirus
T1 sequence (Q9BYG0 36-378): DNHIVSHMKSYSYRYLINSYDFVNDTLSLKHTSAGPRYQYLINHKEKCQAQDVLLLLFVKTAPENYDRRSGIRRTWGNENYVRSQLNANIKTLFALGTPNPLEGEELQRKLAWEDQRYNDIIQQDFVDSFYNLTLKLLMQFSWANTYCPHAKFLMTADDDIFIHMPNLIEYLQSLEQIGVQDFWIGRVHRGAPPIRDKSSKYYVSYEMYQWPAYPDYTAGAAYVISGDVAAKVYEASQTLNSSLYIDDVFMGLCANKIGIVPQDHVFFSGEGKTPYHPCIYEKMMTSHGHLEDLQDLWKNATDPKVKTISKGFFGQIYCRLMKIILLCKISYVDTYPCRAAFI
Method: (§1) β1,3-N-Acetylglucosaminyltransferase activity of the FLAG peptide-fused G6 polypeptide secreted and produced in insect cells was measured by using the eluate prepared in Example 8(6). The method of Example 7 was used for the activity measurement.
(§2) As substrates, oligosaccharides [LNnT, Galβ1-4GlcNAcβ1-3Galβ1-4GlcNAc (hereinafter referred to as “2LN”), Galβ1-4GlcNAcβ1-3Galβ1-4GlcNAcβ1-3Galβ1-4GlcNAc (hereinafter referred to as “3LN”), Galβ1-4GlcNAcβ1-3Galβ1-4GlcNAcβ1-3Galβ1-4GlcNAcβ1-3Galβ1-4GlcNAc (hereinafter referred to as “4LN”), Galβ1-4GlcNAcβ1-3Galβ1-4GlcNAcβ-3Galβ1-4GlcNAcβ1-3Galβ1-4GlcNAcβ1-3Galβ1-4GlcNAc (hereinafter referred to as “5LN”), or Galβ1-4(SO3-6)GlcNAcβ1-3Galβ1-4(SO3-6)GlcNAc (hereinafter referred to as “L2L2”)] were labeled with 2-aminobenzamide and used. 2-Aminobenzamide-labeling of oligosaccharides was carried out using SIGMA 2AB glycan labeling kit (manufactured by Oxford Glycoscience) according to the manufacture's instructions of the kit. LNnT was purchased from Oxford Glycosystems. Other oligosaccharides were obtained from Seikagaku Corporation.
Specifically, the reaction was carried out at 37° C. for 16 hours in 20 μl of an assay solution [150 mmol/l sodium cacodylate (pH 7.2), 50 mmol/l UDP-GlcNAc (manufactured by SIGMA), 0.4% Triton CF-54, 10 mmol/l MnCl2, 5 μmol/12-aminobenzamide-labeled sugar chain substrate, the above purified enzyme solution], and then the product was detected by high performance liquid chromatography (HPLC, details will be described below). […]
(§3) The assay solution after completion of the reaction was treated at 100° C. for 5 minutes and then mixed with 50 μl of pure water for HPLC and centrifuged at 10,000×g for 5 minutes to obtain the supernatant. To a tube containing the assay solution, 50 μl of pure water for HPLC was added again, the tube was washed, and suparnatant was obtained by centrifugation at 10,000×g for 5 minutes and was combined with the first supernatant. Next, the supernatant was passed through Ultrafree-MC column (manufactured by Millipore) and a portion thereof (10 μl) was subjected to HPLC. The Ultrafree-MC column was used according to the method described in the manufacture's instructions attached thereto.
(§4) The HPLC was carried out using TSK-gel ODS-80Ts Column (4.6×300 mm; manufactured by TOSOH) as a column and 0.02 mol/l ammonium acetate buffer containing 7% methanol (pH 4.0) as an eluant at an elution temperature of 50° C. and a flow rate of 1 ml/min.
(§5) The product was detected using a fluorescence spectrophotometer FP-920 (manufactured by JASCO Corporation) (excitation wavelength: 330 nm, radiation wavelength: 420 nm).

[2] = target: T2, G6sec2 (Homo sapiens, UniProt Q9BYG0); test: as above; format: biochemical; settings: for Relative activity (%) Test 1 G6sec2 / Relative activity (%) Test 2 G6sec2: 2-aminobenzamide-labeled oligosaccharides, LNnT defined as 100%; for Relative activity (%) Test 2 G6sec2: enzyme prepared again
T2 construct: made in house; host or cells: Sf21 insect cells infected with pVL1393-F2G6sec2-derived recombinant baculovirus
T2 sequence (Q9BYG0 39-378): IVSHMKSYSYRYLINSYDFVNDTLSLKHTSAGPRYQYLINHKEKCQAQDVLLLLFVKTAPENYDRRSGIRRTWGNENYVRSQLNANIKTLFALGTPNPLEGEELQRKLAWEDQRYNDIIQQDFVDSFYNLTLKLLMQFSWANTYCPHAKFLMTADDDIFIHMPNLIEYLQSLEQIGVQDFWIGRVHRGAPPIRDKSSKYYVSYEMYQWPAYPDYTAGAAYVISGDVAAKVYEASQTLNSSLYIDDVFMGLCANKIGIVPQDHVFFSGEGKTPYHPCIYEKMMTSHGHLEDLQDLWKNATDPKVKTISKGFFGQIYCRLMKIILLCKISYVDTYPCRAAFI
Method: as §1, §2
Specifically, the reaction was carried out at 37° C. for 16 hours in 20 μl of an assay solution [150 mmol/l sodium cacodylate (pH 7.2), 50 mmol/l UDP-GlcNAc (manufactured by SIGMA), 0.4% Triton CF-54, 10 mmol/l MnCl2, 5 μmol/12-aminobenzamide-labeled sugar chain substrate, the above purified enzyme solution], and then the product was detected by high performance liquid chromatography (HPLC, details will be described below). As the enzyme, an eluate (1.5 μl) prepared from a culture supernatant of Sf21 infected with the recombinant virus derived from pVL1393-F2G6sec1 or an eluate (1.4 μl) prepared from a culture supernatant of Sf21 infected with the recombinant virus derived from pVL1393-F2G6sec2, prepared in Example 8(6), was used.
as §3, §4, §5
Also, a purified enzyme (G6sec2) was again prepared using the method shown in Example 8(6), its substrate specificity was again examined, and the results are also shown in Table 1 (Test 2 in Table 1). The purified enzyme (280 μl) was prepared from 30 ml of a culture supernatant of Sf21 infected with the recombinant virus derived from pVL1393-F2G6sec2, and the assay was carried out using a 4 μl portion thereof. Relative activities when the activity measured using 2-aminobenzamide-labeled LNnT as the substrate is defined as 100% are shown in the table.

Relative activity (%) Test 1 G6sec1 [1] [%]	conversion efficiency of the substrate ([1]; G6sec1-adsorbed ANTI-FLAG M1 AFFINITY GEL used as enzyme) [%]	conversion efficiency of the substrate into the product ([1]; G6sec1 eluate 1.5 μl, 2-aminobenzamide-labeled substrate, 37° C., 16 hours (Test 1)) [%]	Relative activity (%) Test 1 G6sec2 [2] [%]	Relative activity (%) Test 2 G6sec2 [2] [%]	conversion efficiency of the substrate into the product ([2]; G6sec2 eluate 1.4 μl, 2-aminobenzamide-labeled substrate, 37° C., 16 hours (Test 1)) [%]	conversion efficiency into the product ([2]; G6sec2 prepared again, 4 μl, 2-aminobenzamide-labeled substrate (Test 2)) [%]	Compound
100	6.64	9.85	100	100	11.2	26.2	CC(=O)N[C@H]1[C@H](O[C@H]2[C@@H](O)[C@@H](CO)O[C@@H](O[C@H]3[C@H](O)[C@@H](O)C(O)O[C@@H]3CO)[C@@H]2O)O[C@H](CO)[C@@H](O[C@@H]2O[C@H](CO)[C@H](O)[C@H](O)[C@H]2O)[C@@H]1O (mixture of isomers) [LNnT, lacto-N-neotetraose]
81.4	–	–	86.8	65.3	–	–	CC(=O)N[C@H]1[C@H](O[C@H]2[C@@H](O)[C@@H](CO)O[C@@H](O[C@H]3[C@H](O)[C@@H](NC(C)=O)C(O)O[C@@H]3CO)[C@@H]2O)O[C@H](CO)[C@@H](O[C@@H]2O[C@H](CO)[C@H](O)[C@H](O)[C@H]2O)[C@@H]1O (stereo partly shown) [2LN, Galβ1-4GlcNAcβ1-3Galβ1-4GlcNAc]
